{
  "source": "patent US20230203482A1",
  "about": "“Methods of Rescuing Stop Codons via Genetic Reassignment with ACE-tRNA” (THE WISTAR INSTITUTE OF ANATOMY AND BIOLOGY, priority 2017, published 2023)",
  "molecules": {"B1": {"name": "Glychr19.trna2: top performing glycine ACE-tRNA UGA suppressor, SEQ ID NO: 53 (nucleic acid)", "chain": "GCGTTGGTGGTATAGTGGTTAGCATAGCTGCCTTCAAAGCAGTTGACCCGGGTTCGATTCCCGGCCAACGCA", "modifications": "chemistry not fully specified"}},
  "key": {"CFTR W1282X": {"tested_on": "CFTR W1282X", "assay": "CFTR W1282X rescue, western blot in HEK cells", "assay_type": "cell-based, human", "conditions": "CFTR W1282X cDNA co-expressed in HEK cells, antibody M3A7", "experimental": "To assess is these novel tRNA could rescue CFTR channels harboring nonsense codons, they were co-expressed in mammalian HEK cells with a CFTR W1282X cDNA plasmid. The cellular preparations were analyzed by standard biochemical approaches via Western blot assessment of CFTR protein. […] Specifically, the “B” and “C” bands represent the full-length and fully mature, post-translationally proceeded CFTR protein at the cell surface, respectively. […] FIG. 9.\n(§1) For expression in mammalian cells, the cDNA for the coding region and 200 base-pair of the 3′ untranslated region (UTR) of human CFTR was ligated into pcDNA3.1(+) (Promega, USA) using the KpnI and XbaI restriction enzymes. The G542tga and W1282tga mutations were introduced using QuickChange XL II (Stratagene, USA). For expression in Xenopus laevis oocytes, the cDNA for the coding region and 140 base-pair of the 5′ and 244 base-pair 3′ UTR of human CFTR was ligated into pGEM-HE (Promega, USA). Bothe the G542tga and W1282tga mutations were introduced using QuickChange XL II. The cDNA encoding the E. coli histidinol dehydrogenase was codon optimized for Mus musculus and synthesized (BioBasic Inc, Canada) with a c-terminal 8xHis-Strep-tag for protein purification from mammalian cells. The synthesized cDNA was ligated into pcDNA3.1(+) using EcoRI and XhoI restriction sites. […]"}, "[1]": {"tested_on": "histidinol dehydrogenase (HDH) N94-TGA", "assay": "Mass spectrometry of suppressed histidinol dehydrogenase (cognate amino acid encoding)", "assay_type": "cell-based, E. coli", "conditions": "MS/MS of tryptic fragment", "description": "as §1, with “sites. The nonsense mutations tag, taa and tga were introduced using QuickChange XL II.” for “sites.”"}},
  "data": [
    {"molecule": "Trpchr17.trna39: top performing tryptophan ACE-tRNA UGA suppressor, SEQ ID NO: 48", "values": [
      {"measurement": "rescue of full-length CFTR protein (B and C bands)", "setting": "CFTR W1282X", "value": "robust populations of ‘B’ and ‘C’ CFTR immunopositive (antibody MA37) bands"},
      {"measurement": "mass modification of Asn at HDH N94", "setting": "[1]", "value": "+72 Da"}
    ]},
    {"molecule": "B1", "values": [
      {"measurement": "rescue of full-length CFTR protein (B and C bands)", "setting": "CFTR W1282X", "value": "robust populations of ‘B’ and ‘C’ CFTR immunopositive (antibody MA37) bands"},
      {"measurement": "mass modification of Asn at HDH N94", "setting": "[1]", "value": "−57", "unit": "Da"}
    ]}
  ]
}
